Legend:
[1] = test system: TK-10; test: Anticancer activity against human TK-10 cells assessed as cell growth inhibition at 10 uM incubated for 48 hrs by SRB assay relative to control; assay type: functional; details: read-out: GI
[2] = test system: COLO 205; test: Anticancer activity against human COLO 205 cells assessed as cell growth inhibition at 10 uM incubated for 48 hrs by SRB assay relative to control; assay type: functional; details: read-out: GI
[3] = test system: OVCAR-3; test: Anticancer activity against human OVCAR-3 cells assessed as cell growth inhibition at 10 uM incubated for 48 hrs by SRB assay relative to control; assay type: functional; details: read-out: GI
[4] = test system: A549; test: Anticancer activity against human A549 cells assessed as cell growth inhibition at 10 uM incubated for 48 hrs by SRB assay relative to control; assay type: functional; details: read-out: GI
[5] = test system: OVCAR-8; test: Anticancer activity against human OVCAR-8 cells assessed as cell growth inhibition at 10 uM incubated for 48 hrs by SRB assay relative to control; assay type: functional; details: read-out: GI
[6] = test system: MDA-MB-468; test: Anticancer activity against human MDA-MB-468 cells assessed as cell growth inhibition at 10 uM incubated for 48 hrs by SRB assay relative to control; assay type: functional; details: read-out: GI
[7] = test system: NCI-H460; test: Anticancer activity against human NCI-H460 cells assessed as cell growth inhibition at 10 uM incubated for 48 hrs by SRB assay relative to control; assay type: functional; details: read-out: GI
[8] = test system: SF-539; test: Anticancer activity against human SF-539 cells assessed as cell growth inhibition at 10 uM incubated for 48 hrs by SRB assay relative to control; assay type: functional; details: read-out: GI
[9] = test system: EKVX; test: Anticancer activity against human EKVX cells assessed as cell growth inhibition at 10 uM incubated for 48 hrs by SRB assay relative to control; assay type: functional; details: read-out: GI
[10] = test system: LOX IMVI; test: Anticancer activity against human LOX IMVI cells assessed as cell growth inhibition at 10 uM incubated for 48 hrs by SRB assay relative to control; assay type: functional; details: read-out: GI
[11] = test system: OVCAR-5; test: Anticancer activity against human OVCAR-5 cells assessed as cell growth inhibition at 10 uM incubated for 48 hrs by SRB assay relative to control; assay type: functional; details: read-out: GI
[12] = test system: SNB-19; test: Anticancer activity against human SNB-19 cells assessed as cell growth inhibition at 10 uM incubated for 48 hrs by SRB assay relative to control; assay type: functional; details: read-out: GI
[13] = test system: UO-31; test: Anticancer activity against human UO-31 cells assessed as cell growth inhibition at 10 uM incubated for 48 hrs by SRB assay relative to control; assay type: functional; details: read-out: GI
[14] = test system: T47D; test: Anticancer activity against human T47D cells assessed as cell growth inhibition at 10 uM incubated for 48 hrs by SRB assay relative to control; assay type: functional; details: read-out: GI
[15] = test system: RXF 393; test: Anticancer activity against human RXF 393 cells assessed as cell growth inhibition at 10 uM incubated for 48 hrs by SRB assay relative to control; assay type: functional; details: read-out: GI
[16] = test system: K562; test: Anticancer activity against human K562 cells assessed as cell growth inhibition at 10 uM incubated for 48 hrs by SRB assay relative to control; assay type: functional; details: read-out: GI
[17] = test system: U-251; test: Anticancer activity against human U-251 cells assessed as cell growth inhibition at 10 uM incubated for 48 hrs by SRB assay relative to control; assay type: functional; details: read-out: GI
[18] = test system: RPMI-8226; test: Anticancer activity against human RPMI-8226 cells assessed as cell growth inhibition at 10 uM incubated for 48 hrs by SRB assay relative to control; assay type: functional; details: read-out: GI
[19] = test system: A498; test: Anticancer activity against human A498 cells assessed as cell growth inhibition at 10 uM incubated for 48 hrs by SRB assay relative to control; assay type: functional; details: read-out: GI
[20] = test system: 786-0; test: Anticancer activity against human 786-0 cells assessed as cell growth inhibition at 10 uM incubated for 48 hrs by SRB assay relative to control; assay type: functional; details: read-out: GI
[21] = test system: Hs-578T; test: Anticancer activity against human Hs-578T cells assessed as cell growth inhibition at 10 uM incubated for 48 hrs by SRB assay relative to control; assay type: functional; details: read-out: GI
[22] = test system: PC-3; test: Anticancer activity against human PC-3 cells assessed as cell growth inhibition at 10 uM incubated for 48 hrs by SRB assay relative to control; assay type: functional; details: read-out: GI
[23] = molecular target: Carbonic anhydrase 9 (Homo sapiens, UniProt Q16790); test: Inhibition of recombinant human CA 9 preincubated for 15 mins by phenol red dye based stopped flow CO2 hydration assay
[24] = test system: MCF7; test: Anticancer activity against human MCF7 cells assessed as cell growth inhibition at 10 uM incubated for 48 hrs by SRB assay relative to control; assay type: functional; details: read-out: GI
[25] = test system: MOLT-4; test: Anticancer activity against human MOLT-4 cells assessed as cell growth inhibition at 10 uM incubated for 48 hrs by SRB assay relative to control; assay type: functional; details: read-out: GI
[26] = test system: HT-29; test: Anticancer activity against human HT-29 cells assessed as cell growth inhibition at 10 uM incubated for 48 hrs by SRB assay relative to control; assay type: functional; details: read-out: GI
[27] = test system: MDA-MB-231; test: Anticancer activity against human MDA-MB-231 cells assessed as cell growth inhibition at 10 uM incubated for 48 hrs by SRB assay relative to control; assay type: functional; details: read-out: GI
[28] = test system: SK-MEL-2; test: Anticancer activity against human SK-MEL-2 cells assessed as cell growth inhibition at 10 uM incubated for 48 hrs by SRB assay relative to control; assay type: functional; details: read-out: GI
[29] = test system: HOP-92; test: Anticancer activity against human HOP-92 cells assessed as cell growth inhibition at 10 uM incubated for 48 hrs by SRB assay relative to control; assay type: functional; details: read-out: GI
[30] = test system: Malme-3M; test: Anticancer activity against human Malme-3M cells assessed as cell growth inhibition at 10 uM incubated for 48 hrs by SRB assay relative to control; assay type: functional; details: read-out: GI
[31] = test system: SK-MEL-5; test: Anticancer activity against human SK-MEL-5 cells assessed as cell growth inhibition at 10 uM incubated for 48 hrs by SRB assay relative to control; assay type: functional; details: read-out: GI
[32] = test system: SN12C; test: Anticancer activity against human SN12C cells assessed as cell growth inhibition at 10 uM incubated for 48 hrs by SRB assay relative to control; assay type: functional; details: read-out: GI
[33] = test system: KM12; test: Anticancer activity against human KM12 cells assessed as cell growth inhibition at 10 uM incubated for 48 hrs by SRB assay relative to control; assay type: functional; details: read-out: GI
[34] = test system: OVCAR-4; test: Anticancer activity against human OVCAR-4 cells assessed as cell growth inhibition at 10 uM incubated for 48 hrs by SRB assay relative to control; assay type: functional; details: read-out: GI
[35] = test system: HCT-15; test: Anticancer activity against human HCT-15 cells assessed as cell growth inhibition at 10 uM incubated for 48 hrs by SRB assay relative to control; assay type: functional; details: read-out: GI
[36] = test system: SF-268; test: Anticancer activity against human SF-268 cells assessed as cell growth inhibition at 10 uM incubated for 48 hrs by SRB assay relative to control; assay type: functional; details: read-out: GI
[37] = test system: NCI-H23; test: Anticancer activity against human NCI-H23 cells assessed as cell growth inhibition at 10 uM incubated for 48 hrs by SRB assay relative to control; assay type: functional; details: read-out: GI
[38] = test system: HOP-62; test: Anticancer activity against human HOP-62 cells assessed as cell growth inhibition at 10 uM incubated for 48 hrs by SRB assay relative to control; assay type: functional; details: read-out: GI
[39] = test system: SNB-75; test: Anticancer activity against human SNB-75 cells assessed as cell growth inhibition at 10 uM incubated for 48 hrs by SRB assay relative to control; assay type: functional; details: read-out: GI
[40] = test system: NCI-H522; test: Anticancer activity against human NCI-H522 cells assessed as cell growth inhibition at 10 uM incubated for 48 hrs by SRB assay relative to control; assay type: functional; details: read-out: GI

SMILES | inhibition of growth at 10 µM [1] [%] | inhibition of growth at 10 µM [2] [%] | inhibition of growth at 10 µM [3] [%] | inhibition of growth at 10 µM [4] [%] | inhibition of growth at 10 µM [5] [%] | inhibition of growth at 10 µM [6] [%] | inhibition of growth at 10 µM [7] [%] | inhibition of growth at 10 µM [8] [%] | inhibition of growth at 10 µM [9] [%] | inhibition of growth at 10 µM [10] [%] | inhibition of growth at 10 µM [11] [%] | inhibition of growth at 10 µM [12] [%] | inhibition of growth at 10 µM [13] [%] | inhibition of growth at 10 µM [14] [%] | inhibition of growth at 10 µM [15] [%] | inhibition of growth at 10 µM [16] [%] | inhibition of growth at 10 µM [17] [%] | inhibition of growth at 10 µM [18] [%] | inhibition of growth at 10 µM [19] [%] | inhibition of growth at 10 µM [20] [%] | also measured
NS(=O)(=O)c1ccc(Nc2nc(N/N=C/c3cccc4ccccc34)nc(Nc3ccccc3)n2)cc1 | < 10 | 18 | 23 | 26 | 40 | < 10 | 13 | 22 | 20 | 44 | < 10 | < 10 | 18 | 55 | 64 | 41 | 33 | 51 | < 10 | 56 | inhibition of growth at 10 µM [21]: 11%; inhibition of growth at 10 µM [22]: 44%; Ki [23]: 28.1 nM; inhibition of growth at 10 µM [24]: 46%; inhibition of growth at 10 µM [25]: 84%; inhibition of growth at 10 µM [26]: 36%; inhibition of growth at 10 µM [27]: < 10%; inhibition of growth at 10 µM [28]: 17%; inhibition of growth at 10 µM [29]: < 10%; inhibition of growth at 10 µM [30]: 19%; inhibition of growth at 10 µM [31]: 29%; inhibition of growth at 10 µM [32]: 12%; inhibition of growth at 10 µM [33]: 27%; inhibition of growth at 10 µM [34]: 16%; inhibition of growth at 10 µM [35]: 29%; inhibition of growth at 10 µM [36]: 12%; inhibition of growth at 10 µM [37]: 10%; inhibition of growth at 10 µM [38]: 11%; inhibition of growth at 10 µM [39]: < 10%; inhibition of growth at 10 µM [40]: 24%
NS(=O)(=O)c1ccc(Nc2nc(N/N=C/C=C/c3ccccc3)nc(Nc3ccccc3)n2)cc1 | 13 | 44 | 55 | 30 | 50 | 84 | 93 | 60 | 28 | 72 | < 10 | 51 | 60 | 81 | 108 | 72 | 48 | 71 | 59 | 62 | inhibition of growth at 10 µM [21]: 60%; inhibition of growth at 10 µM [22]: 52%; Ki [23]: 233 nM; inhibition of growth at 10 µM [24]: 84%; inhibition of growth at 10 µM [25]: 87%; inhibition of growth at 10 µM [26]: 65%; inhibition of growth at 10 µM [27]: 52%; inhibition of growth at 10 µM [28]: 55%; inhibition of growth at 10 µM [29]: 16%; inhibition of growth at 10 µM [30]: 49%; inhibition of growth at 10 µM [31]: 59%; inhibition of growth at 10 µM [32]: 51%; inhibition of growth at 10 µM [33]: 44%; inhibition of growth at 10 µM [34]: 50%; inhibition of growth at 10 µM [35]: 55%; inhibition of growth at 10 µM [36]: 53%; inhibition of growth at 10 µM [37]: 59%; inhibition of growth at 10 µM [38]: 43%; inhibition of growth at 10 µM [39]: 57%; inhibition of growth at 10 µM [40]: 33%
